Measured values taken from PubChem BioAssay (NCI).
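All cell lines were grown in 96-well plates and treated with compound for 48 hours. The concentration for full growth arrest is given as TGI.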

How the values were obtained:
Test in all cases: inhibition of tumour cell growth, NCI panel, 48 h
[1] = tested on: 786-0 renal
[2] = tested on: A498 renal
[3] = tested on: A549 NSCLC
[4] = tested on: ACHN renal
[5] = tested on: BT-549 breast
[6] = tested on: CAKI-1 renal
[7] = tested on: CCRF-CEM leukemia
[8] = tested on: COLO 205 colon
[9] = tested on: DU-145 prostate
[10] = tested on: EKVX NSCLC
[11] = tested on: HCC-2998 colon
[12] = tested on: HCT-116 colon
[13] = tested on: HCT-15 colon
[14] = tested on: HOP-62 NSCLC
[15] = tested on: HOP-92 NSCLC
[16] = tested on: HS 578T breast
[17] = tested on: HT29 colon
[18] = tested on: IGROV1 ovarian
[19] = tested on: K-562 leukemia
[20] = tested on: KM12 colon
[21] = tested on: LOX IMVI melanoma
[22] = tested on: M14 melanoma
[23] = tested on: MALME-3M melanoma
[24] = tested on: MCF7 breast
[25] = tested on: MDA-MB-231 breast
[26] = tested on: MDA-MB-435
[27] = tested on: MDA-N
[28] = tested on: MOLT-4 leukemia
[29] = tested on: NCI-H226 lung
[30] = tested on: NCI-H23 lung
[31] = tested on: NCI-H460 lung
[32] = tested on: NCI-H522 lung
[33] = tested on: NCI/ADR-RES ovarian
[34] = tested on: OVCAR-4 ovarian
[35] = tested on: OVCAR-5 ovarian
[36] = tested on: OVCAR-8 ovarian
[37] = tested on: PC-3 prostate
[38] = tested on: RPMI-8226 leukemia
[39] = tested on: RXF 393 renal
[40] = tested on: SF-268 CNS
[41] = tested on: SF-295 CNS
[42] = tested on: SF-539 CNS
[43] = tested on: SK-MEL-2 melanoma
[44] = tested on: SK-MEL-5 melanoma
[45] = tested on: SK-OV-3 ovarian
[46] = tested on: SN12C renal
[47] = tested on: SNB-19 CNS
[48] = tested on: SNB-75 CNS
[49] = tested on: SW-620 colon
[50] = tested on: T-47D breast
[51] = tested on: TK-10 renal
[52] = tested on: U251 CNS
[53] = tested on: UACC-257 melanoma
[54] = tested on: UACC-62 melanoma
[55] = tested on: UO-31 renal
[56] = tested on: HL-60(TB) leukemia
[57] = tested on: OVCAR-3 ovarian
[58] = tested on: SK-MEL-28 melanoma
[59] = tested on: SR leukemia

`O=c1[nH]c(=O)n(C2OC(CO)C(O)C2O)c2nc(-c3ccc(-c4ccccc4)cc3)cnc12` (stereo unspecified) gave a TGI [1] of over 100 µM, a TGI [2] of over 100 µM and a TGI [3] of over 100 µM. For the same molecule, the TGI [4] was over 100 µM, the TGI [5] was over 100 µM and the TGI [6] was over 100 µM. It also gave a TGI [7] of over 100 µM, a TGI [8] of over 100 µM and a TGI [9] of over 100 µM. For the same molecule, the TGI [10] was over 100 µM, the TGI [11] was over 100 µM and the TGI [12] was over 100 µM. For the same molecule, the TGI [13] was over 100 µM, the TGI [14] was over 100 µM and the TGI [15] was over 100 µM. It also gave a TGI [16] of over 100 µM, a TGI [17] of over 100 µM and a TGI [18] of over 100 µM. It also gave a TGI [19] of over 100 µM, a TGI [20] of over 100 µM and a TGI [21] of over 100 µM. It also gave a TGI [22] of over 100 µM, a TGI [23] of over 100 µM and a TGI [24] of over 100 µM. The TGI [25] was over 100 µM, the TGI [26] was over 100 µM and the TGI [27] was over 100 µM. It also gave a TGI [28] of over 100 µM, a TGI [29] of over 100 µM and a TGI [30] of over 100 µM. The TGI [31] was over 100 µM, the TGI [32] was over 100 µM and the TGI [33] was over 100 µM. The TGI [34] was over 100 µM, the TGI [35] was over 100 µM and the TGI [36] was over 100 µM. For the same molecule, the TGI [37] was over 100 µM, the TGI [38] was over 100 µM and the TGI [39] was over 100 µM. For the same molecule, the TGI [40] was over 100 µM, the TGI [41] was over 100 µM and the TGI [42] was over 100 µM. It also gave a TGI [43] of over 100 µM, a TGI [44] of over 100 µM and a TGI [45] of over 100 µM. For the same molecule, the TGI [46] was over 100 µM, the TGI [47] was over 100 µM and the TGI [48] was over 100 µM. For the same molecule, the TGI [49] was over 100 µM, the TGI [50] was over 100 µM and the TGI [51] was over 100 µM. For the same molecule, the TGI [52] was over 100 µM, the TGI [53] was over 100 µM and the TGI [54] was over 100 µM. It also gave a TGI [55] of over 100 µM.

For `Oc1ccc([I+]c2ccccc2)cc1O`, the TGI [1] was over 100 µM, the TGI [2] was over 100 µM and the TGI [3] was 65.5 µM. It also gave a TGI [4] of over 100 µM, a TGI [5] of over 100 µM and a TGI [6] of over 100 µM. It also gave a TGI [7] of 60.4 µM, a TGI [8] of over 100 µM and a TGI [9] of over 100 µM. The TGI [10] was over 100 µM, the TGI [11] was 64.2 µM and the TGI [12] was over 100 µM. For the same molecule, the TGI [13] was over 100 µM, the TGI [56] was 47.1 µM and the TGI [14] was over 100 µM. It also gave a TGI [15] of 28.9 µM, a TGI [16] of over 100 µM and a TGI [17] of over 100 µM. It also gave a TGI [18] of over 100 µM, a TGI [19] of 54.3 µM and a TGI [20] of 70.7 µM. The TGI [21] was over 100 µM, the TGI [23] was over 100 µM and the TGI [25] was over 100 µM. It also gave a TGI [26] of 66.2 µM, a TGI [27] of over 100 µM and a TGI [28] of 85.3 µM. It also gave a TGI [29] of over 100 µM, a TGI [30] of over 100 µM and a TGI [31] of over 100 µM. For the same molecule, the TGI [32] was over 100 µM, the TGI [33] was over 100 µM and the TGI [57] was over 100 µM. It also gave a TGI [34] of over 100 µM, a TGI [35] of over 100 µM and a TGI [36] of over 100 µM. It also gave a TGI [37] of 64.1 µM, a TGI [38] of 61.4 µM and a TGI [39] of over 100 µM. The TGI [40] was over 100 µM, the TGI [41] was over 100 µM and the TGI [42] was 91.2 µM. For the same molecule, the TGI [58] was over 100 µM, the TGI [44] was over 100 µM and the TGI [46] was over 100 µM. For the same molecule, the TGI [47] was over 100 µM, the TGI [48] was over 100 µM and the TGI [59] was over 100 µM. The TGI [49] was 37.1 µM, the TGI [51] was over 100 µM and the TGI [52] was over 100 µM. For the same molecule, the TGI [53] was over 100 µM and the TGI [55] was over 100 µM.

`CN(C)c1ccc(C(=N/N=C2\C(=O)Nc3ccccc32)c2ccc(N(C)C)cc2)cc1` gave a TGI [1] of 13.2 µM, a TGI [2] of 16.8 µM and a TGI [3] of 43.2 µM. For the same molecule, the TGI [4] was 40.8 µM, the TGI [5] was 38.6 µM and the TGI [6] was 19.7 µM. The TGI [7] was 13.2 µM, the TGI [8] was 3.34 µM and the TGI [9] was 17.5 µM. For the same molecule, the TGI [10] was over 54.4 µM, the TGI [11] was 17.5 µM and the TGI [12] was 12.3 µM. For the same molecule, the TGI [13] was 18.7 µM, the TGI [56] was 7.4 µM and the TGI [14] was 41.9 µM. The TGI [15] was 51.2 µM, the TGI [16] was over 21.9 µM and the TGI [17] was 4.45 µM. The TGI [18] was 9.07 µM, the TGI [19] was 39.6 µM and the TGI [20] was 33.1 µM. The TGI [21] was 28.7 µM, the TGI [22] was 14.4 µM and the TGI [23] was over 52.1 µM. For the same molecule, the TGI [24] was 2.72 µM, the TGI [25] was 13.1 µM and the TGI [26] was 0.0567 µM. For the same molecule, the TGI [28] was 52.7 µM, the TGI [29] was 43.3 µM and the TGI [30] was 31.1 µM. It also gave a TGI [31] of 11.2 µM, a TGI [32] of 0.649 µM and a TGI [33] of 3.59 µM. The TGI [57] was 3.63 µM, the TGI [34] was over 32.6 µM and the TGI [35] was over 54 µM. It also gave a TGI [36] of 22.4 µM, a TGI [37] of 40 µM and a TGI [38] of 3.46 µM. For the same molecule, the TGI [39] was 1.23 µM, the TGI [40] was 29.2 µM and the TGI [41] was 4.13 µM. The TGI [42] was 3.72 µM, the TGI [43] was 2.72 µM and the TGI [58] was over 57.2 µM. The TGI [44] was 13.9 µM, the TGI [45] was 11.9 µM and the TGI [46] was 46.8 µM. It also gave a TGI [47] of over 100 µM, a TGI [48] of 1.21 µM and a TGI [59] of 26.8 µM. The TGI [49] was over 100 µM, the TGI [50] was 35.5 µM and the TGI [51] was 28.2 µM. For the same molecule, the TGI [52] was 15.5 µM, the TGI [53] was over 83.8 µM and the TGI [54] was 33.5 µM. It also gave a TGI [55] of 30.8 µM.
